Where a name gives a salt, the structure may show the parent alone.

As usually defined, the Ki is a dissociation constant, usually derived from enzyme kinetics or from competition with a known ligand. A low value points to tighter binding.

In the experiment the target is T1, human leukocyte elastase (Homo sapiens, UniProt P08246).
T1 sequence (P08246 30-267): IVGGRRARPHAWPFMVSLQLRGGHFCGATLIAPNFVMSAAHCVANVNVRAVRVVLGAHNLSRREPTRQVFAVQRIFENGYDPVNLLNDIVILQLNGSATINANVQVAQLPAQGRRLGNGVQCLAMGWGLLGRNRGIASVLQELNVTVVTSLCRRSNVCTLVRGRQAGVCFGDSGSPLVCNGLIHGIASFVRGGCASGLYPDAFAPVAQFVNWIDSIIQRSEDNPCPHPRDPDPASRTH
As to the kind of experiment: Human leukocyte elastase inhibitory activity (substrate MeOSuc-Ala-Ala-Pro-Val-pNA, microtiter plate progress curves). In kind it is biochemical. Conditions: HLE, pH 7.8, 25° C., 500 mM NaCl. Here is the method: The test compound (inhibitor) is dissolved in DMSO in a vial to produce an inhibitor stock solution which has a concentration in the range of 200-1000 μM. The inhibitor stock solution is diluted (1:4, 1:16 and 1:64) into assay vials (vials 1, 2 and 3 respectively) containing 2.4 mL of buffer solution (50 mM N- [2-hydroxyethyl ] piperazine-N'-[2-ethanesulfonic acid]/NaOH, 500 mM NaCl, pH 7.8 at 25° C.) and DMSO is added so that the total volume in each vial is 3.2 mL. 70 μL, 50 μL, 35 μL and 25 μL of inhibitor from assay vial 1 is placed into the first four wells of a 96-well microtiter plate and each well is made up to 90 μL total volume with the addition of a 25% DMSO/buffer solution. The inhibitor from assay vials 2 and 3 is processed in a similar manner and placed in wells 5-12 respectively to afford a total of 12 different inhibitor concentrations. Four wells (wells 13-16) containing 90 μL of the 25% DMSO/buffer solution but no inhibitor are also run simultaneously with the inhibited wells as a control. 150 μL of substrate solution (prepared by the addition of 500 μL of the human leukocyte elastase (HLE) substrate MeOSuc-Ala-Ala-Pro-Val-pNA (18.7 mM in DMSO) to 19.5 mL of buffer solution) is then added simultaneously into each of the 16 wells and the solution in each well was thoroughly mixed.
The 96-well microtiter plate is placed into a Microplate Reader #89815A spectrophotometer and 110 μL of the enzyme solution (prepared as follows: a mixture of 20 mL of buffer solution and 20 mg of bovine serum albumen is gently vortexed in a scintillation vial and 5 μL HLE stock solution (1 mg/mL dissolved in deionized water) is added) is added simultaneously to each of the 16 wells. Each of the solutions in the wells is throughly mixed and then the time-dependent absorbance data is collected at an absorbance of 410 nm until the assay is complete. It should be noted that although this assay method can be done manually, it is preferred to perform the assay robotically using a Hewlett Packard MicroAssay System Robot.
A plot of the absorbance versus time data thus obtained affords progress curves the final slope of which is equal to the final steady-state velocities (VF). Using the program ENZFITTER (Elsevier software), the progress curves for the four control assays ([I]=0) are fit by linear regression to yield the enzyme reaction velocity values in the absences of inhibitor (Vo) which are averaged to produce a single fixed value. The inhibition constant Ki (nM) is then obtained from a plot of [formula] which affords a linear plot wherein: [formula] and [S] is the concentration of the substrate and Km is the Michaelis constant.
Table II summarizes the results obtained from the testing of representative compounds of the invention for human leukocyte elastase inhibitory activity.
In the case of `O=C(OCN1C(=O)C2C3CCC(C3)N2S1(=O)=O)c1c(Cl)cccc1Cl` (stereo not shown) [15(i)], the Ki was 3700 nM. That is a single-digit micromolar value.

The molecule `CC(C)C1NS(=O)(=O)N(COC(=O)c2c(Cl)cccc2Cl)C1=O` (stereo not shown) [2(f), 2-(2,6-dichlorophenylcarbonyloxymethyl)-4-isopropyl-1,2,5-thiadiazolidin-3-one 1,1-dioxide] yielded a Ki of 350 nM. Compared with the last molecule, the Ki is about 11-fold lower.

As to `CCCC1C(=O)N(COC(=O)c2c(Cl)cccc2Cl)S(=O)(=O)N1C` (stereo not shown) [3(i), 2-(2,6-dichlorophenylcarbonyloxy-methyl)-4-propyl-5-methyl-1,2,5-thiadiazolidin-3-one 1,1-dioxide], affinity was put at a Ki of 0.11 nM.

Molecule `CC(C)CCC1C(=O)N(COC(=O)c2c(Cl)cccc2Cl)S(=O)(=O)N1C` (stereo not shown) [8(i)] gave a Ki of 0.06 nM.

With `CCCC1CCCN2C1C(=O)N(COC(=O)c1c(Cl)cccc1Cl)S2(=O)=O` (stereo not shown) [16(j), 2-(2,6-dichlorophenylcarbonyloxymethyl)-4-propyl-1,2,5-thiadiazolo [2,3-a]3,3a, 4,5,6,7-hexahydropyridine-3-one 1,1-dioxide], the Ki was 9.6 nM.

The molecule `CCCC1NS(=O)(=O)N(COC(=O)c2c(Cl)cccc2Cl)C1=O` (stereo not shown) [1(f), 2-(2,6-dichlorophenylcarbonyloxymethyl)-4-propyl-1,2,5-thiadiazolidin-3-one 1,1-dioxide] registered a Ki of 12 nM. The Ki values of the last two molecules are within 1.5-fold of each other.

The molecule `CCCC1C(=O)N(COC(=O)c2c(Cl)cccc2Cl)S(=O)(=O)N1CC` (stereo not shown) [5(e), 2-(2,6-dichloro-phenylcarbonyloxymethyl)-4-propyl-5-ethyl-1,2,5-thiadiazolidin-3-one 1,1-dioxide] came in with a Ki of 0.5 nM.

Regarding `CC(C)CCC1C(=O)N(COC(=O)c2c(Cl)ccc(OCCN3CCOCC3)c2Cl)S(=O)(=O)N1C` (stereo not shown) [10(b), 2-(2,6-dichloro-3-[2-(4-morpholino)ethoxy]phenyl-carbonyloxymethyl)-4-(3-methylbutyl)-5-methyl-1,2,5-thiadiazolidin-3-one 1,1-dioxide], the Ki was 0.2 nM. Compared with the last molecule, the Ki is about 2.5-fold lower.

As for `CCCC1(C)C(=O)N(COC(=O)c2c(Cl)cccc2Cl)S(=O)(=O)N1C` (stereo not shown) [6(k), 2-(2,6-dichlorophenylcarbonyloxymethyl)-4-methyl-4-propyl-5-methyl-1,2,5-thiadiazolidin-3-one 1,1-dioxide], the Ki came out at 120 nM.

`CN1C(Cc2ccccc2)C(=O)N(COC(=O)c2c(Cl)cccc2Cl)S1(=O)=O` (stereo not shown) [11(g), 2-(2,6-dichloro-phenylcarbonyloxymethyl)-4-phenylmethyl-5-methyl-1,2,5-thiadiazolidin-3-one 1,1-dioxide]: the Ki amounted to 0.62 nM.

In turn, `CN1C(CCC(C)(C)Cl)C(=O)N(COC(=O)c2c(Cl)cccc2Cl)S1(=O)=O` (stereo not shown) [7(h), 2-(2,6-dichlorophenylcarbonyloxymethyl) -4-(3-methyl-3-chlorobutyl)-5-methyl-1,2,5-thiadiazolidin-3-one 1,1-dioxide] yielded an inhibition constant Ki of 4.4 nM.

For `O=C(OCN1C(=O)C2CCCCN2S1(=O)=O)c1c(Cl)cccc1Cl` (stereo not shown) [13(f), 2-(2,6-dichlorophenylcarbonyloxymethyl)-1,2,5-thiadiazolo [2,3-a]3,3a,4,5,6,7-hexahydropyridine-3-one 1:1-dioxide], the Ki came to 22 nM.

For `CC(C)CCC1C(=O)N(COC(=O)c2c(Cl)ccc(OCCN3CCCC3)c2Cl)S(=O)(=O)N1C` (stereo not shown) [9(c), 2-(2,6-dichloro-3-(2-pyrrolidinoethoxy)phenylcarbonyloxymethyl)-4-(3-methylbutyl)-5-methyl-1,2,5-thiadiazolidin-3-one 1,1-dioxide hydrochloride], the affinity corresponds to a Ki of 0.26 nM.

As to `O=C(OCN1C(=O)C2CCCN2S1(=O)=O)c1c(Cl)cccc1Cl` (stereo not shown) [14(f), 2-(2,6-dichlorophenylcarbonyloxymethyl) tetrahydropyrrolo[1,2-b]-1,2,5-thiadiazol-3(2H)-one 1,1-dioxide], the Ki stood at 170 nM.

`CCCC1C(=O)N(COC(=O)c2c(Cl)ccc(OCCN3CCOCC3)c2Cl)S(=O)(=O)N1CC` (stereo not shown) [Example 12, 2-(2,6-dichloro-3-[2-(4-morpholino]ethoxy]-phenylcarbonyloxymethyl)-4-propyl-5-ethyl-1,2,5-thiadiazolidin-3-one 1,1-dioxide methanesulfonate]: the Ki stood at 0.45 nM.

As for `CC(C)C1C(=O)N(COC(=O)c2c(Cl)cccc2Cl)S(=O)(=O)N1C` (stereo not shown) [4(f), 2-(2,6-dichlorophenylcarbonyloxymethyl)-4-isopropyl-5-methyl-1,2,5-thiadiazolidin-3-one 1,1-dioxide], the Ki is 25 nM.

The values above are taken from patent US5556909A, “Substituted 2-arylcarbonyloxymethyl-1,2,5-thiadiazolidin-3-one 1,1-dioxide derivatives and compositions and method of use thereof” (Sanofi Winthrop Inc., priority 1994, dated 1996).
